# Measured values reported in patent US20210345613A1, “HERBICIDAL PYRIMIDINE COMPOUNDS” (BASF SE, priority 2016, published 2021).
# What was measured:
# Type in all cases: in vivo
# Alopecurus myosuroides = experiment: greenhouse herbicidal test, post-emergence treatment; conditions: post-emergence method, application rate 2000 g/ha, scale from 0 to 100, test period 2 to 4 weeks
# From the text: (§1) The seeds of the test plants were sown separately for each species. For the post-emergence treatment, the test plants were first grown to a height of 3 to 15 cm, depending on the plant habit, and only then treated with the active ingredients which had been suspended or emulsified in water. For this purpose, the test plants were either sown directly and grown in the same containers, or they were first grown separately as seedlings and transplanted into the test containers a few days prior to treatment. Depending on the species, the plants were kept at 10-25° C. or 20-35° C., respectively. The test period extended over 2 to 4 weeks. During this time, the plants were tended, and their response to the individual treatments was evaluated. Evaluation was carried out using a scale from 0 to 100. 100 means no emergence of the plants, or complete destruction of at least the aerial moieties, and 0 means no damage, or normal course of growth. A good herbicidal activity is given at values of at least 70 and a very good herbicidal activity is given at values of at least 85. The plants used in the greenhouse experiments were of the following species: [table]
# Echinocloa crus-galli [1] = experiment: greenhouse herbicidal test, pre-emergence treatment; conditions: pre-emergence method, scale from 0 to 100, test period 2 to 4 weeks
# From the text: (§2) The seeds of the test plants were sown separately for each species. For the pre-emergence treatment, the active ingredients, which had been suspended or emulsified in water, were applied directly after sowing by means of finely distributing nozzles. The containers were irrigated gently to promote germination and growth and subsequently covered with transparent plastic hoods until the plants had rooted. This cover caused uniform germination of the test plants, unless this had been impaired by the active ingredients. Depending on the species, the plants were kept at 10-25° C. or 20-35° C., respectively. The test period extended over 2 to 4 weeks. During this time, the plants were tended, and their response to the individual treatments was evaluated. Evaluation was carried out using a scale from 0 to 100. 100 means no emergence of the plants, or complete destruction of at least the aerial moieties, and 0 means no damage, or normal course of growth. A good herbicidal activity is given at values of at least 70 and a very good herbicidal activity is given at values of at least 85. The plants used in the greenhouse experiments were of the following species: [table]
# Apera spica-venti = experiment: as above; conditions: pre-emergence method, application rate 2000 g/ha, scale from 0 to 100, test period 2 to 4 weeks
# From the text: as §2
# Echinocloa crus-galli [2] = experiment: greenhouse herbicidal test, post-emergence treatment; conditions: post-emergence method, scale from 0 to 100, test period 2 to 4 weeks
# From the text: as §1
# Setaria viridis = experiment: as above; conditions: post-emergence method, scale from 0 to 100, test period 2 to 4 weeks
# From the text: as §1
smiles,measurement,setting,value
CCC=Cc1nc(C2CC2)ncc1-c1ncccc1Cl [Ex.45],herbicidal activity against ALOMY,Alopecurus myosuroides,good (A good herbicidal activity is given at values of at least 70)
same,herbicidal activity against ECHCG,Echinocloa crus-galli [1]; application rate 2000 g/ha,very good (a very good herbicidal activity is given at values of at least 85)
same,herbicidal activity against APESV,Apera spica-venti,good (A good herbicidal activity is given at values of at least 70)
Cc1nc(C2CC2)ncc1-c1cc(Br)sc1Br [Ex.15],herbicidal activity against ECHCG,Echinocloa crus-galli [1]; application rate 500 g/ha,good (A good herbicidal activity is given at values of at least 70)
Clc1cccnc1-c1cnc(C2CC2)nc1C=Cc1ccoc1 [Ex.39],herbicidal activity against ALOMY,Alopecurus myosuroides,good (A good herbicidal activity is given at values of at least 70)
same,herbicidal activity against ECHCG,Echinocloa crus-galli [2]; application rate 2000 g/ha,very good (a very good herbicidal activity is given at values of at least 85)
same,herbicidal activity against ECHCG,Echinocloa crus-galli [1]; application rate 2000 g/ha,very good (a very good herbicidal activity is given at values of at least 85)
same,herbicidal activity against APESV,Apera spica-venti,very good (a very good herbicidal activity is given at values of at least 85)
Brc1cccnc1-c1cnc(C2CC2)nc1-c1ccco1 [Ex.10],herbicidal activity against ALOMY,Alopecurus myosuroides,good (A good herbicidal activity is given at values of at least 70)
Fc1cccnc1-c1cnc(C2CC2)nc1-c1ccoc1 [Ex.11],herbicidal activity against ECHCG,Echinocloa crus-galli [2]; application rate 1000 g/ha,good (A good herbicidal activity is given at values of at least 70)
OC(Cc1nc(C2CC2)ncc1-c1ncccc1Cl)c1ccoc1 (stereo not drawn) [Ex.38],herbicidal activity against ECHCG,Echinocloa crus-galli [2]; application rate 2000 g/ha,very good (a very good herbicidal activity is given at values of at least 85)
same,herbicidal activity against ECHCG,Echinocloa crus-galli [1]; application rate 2000 g/ha,very good (a very good herbicidal activity is given at values of at least 85)
Brc1cccnc1-c1cnc(C2CC2)nc1-c1ccco1 [Ex.8],herbicidal activity against APESV,Apera spica-venti,very good (a very good herbicidal activity is given at values of at least 85)
OC(c1ccccc1)c1nc(C2CC2)ncc1-c1ccccn1 (stereo not drawn) [Ex. 14],herbicidal activity against SETVI,Setaria viridis; application rate 2000 g/ha,very good (a very good herbicidal activity is given at values of at least 85)
C/C=C/c1nc(C2CC2)ncc1-c1ncccc1Cl [Ex.30],herbicidal activity against ALOMY,Alopecurus myosuroides,very good (a very good herbicidal activity is given at values of at least 85)
same,herbicidal activity against ECHCG,Echinocloa crus-galli [2]; application rate 2000 g/ha,good (A good herbicidal activity is given at values of at least 70)
same,herbicidal activity against ECHCG,Echinocloa crus-galli [1]; application rate 2000 g/ha,very good (a very good herbicidal activity is given at values of at least 85)
same,herbicidal activity against APESV,Apera spica-venti,very good (a very good herbicidal activity is given at values of at least 85)
OC1(Cc2nc(C3CC3)ncc2-c2ncccc2Cl)CCCC1 [Ex.26],herbicidal activity against SETVI,Setaria viridis; application rate 2000 g/ha,very good (a very good herbicidal activity is given at values of at least 85)
Brc1ccsc1-c1cnc(C2CC2)nc1-c1ccco1 [Ex.6],herbicidal activity against SETVI,Setaria viridis; application rate 1000 g/ha,very good (a very good herbicidal activity is given at values of at least 85)
Clc1cccnc1-c1cnc(C2CC2)nc1C=C1CCCCC1 [Ex.42],herbicidal activity against ECHCG,Echinocloa crus-galli [2]; application rate 2000 g/ha,good (A good herbicidal activity is given at values of at least 70)
Cc1occc1-c1nc(C2CC2)ncc1-c1ncccc1F [Ex.13],herbicidal activity against SETVI,Setaria viridis; application rate 2000 g/ha,good (A good herbicidal activity is given at values of at least 70)
same,herbicidal activity against ECHCG,Echinocloa crus-galli [2]; application rate 2000 g/ha,good (A good herbicidal activity is given at values of at least 70)
OC(Cc1nc(C2CC2)ncc1-c1ncccc1Cl)c1ccccc1 (stereo not drawn) [Ex.36],herbicidal activity against SETVI,Setaria viridis; application rate 2000 g/ha,very good (a very good herbicidal activity is given at values of at least 85)
same,herbicidal activity against ALOMY,Alopecurus myosuroides,very good (a very good herbicidal activity is given at values of at least 85)
same,herbicidal activity against ECHCG,Echinocloa crus-galli [2]; application rate 2000 g/ha,very good (a very good herbicidal activity is given at values of at least 85)
Fc1cccnc1-c1cnc(C2CC2)nc1-c1ccco1 [Ex.9],herbicidal activity against ECHCG,Echinocloa crus-galli [2]; application rate 2000 g/ha,good (A good herbicidal activity is given at values of at least 70)
